Data from patent publication US20110160167A1, “Steroid Derivatives Acting As Glucocorticosteroid Receptor Agonists” (AstraZeneca AB, priority 2007, published 2011).

Target: T1, recombinant human GR (Homo sapiens, UniProt P04150)
T1 construct: purchased Panvera/Invitrogen P2812 (kit P2893)
T1 sequence (P04150 1-777): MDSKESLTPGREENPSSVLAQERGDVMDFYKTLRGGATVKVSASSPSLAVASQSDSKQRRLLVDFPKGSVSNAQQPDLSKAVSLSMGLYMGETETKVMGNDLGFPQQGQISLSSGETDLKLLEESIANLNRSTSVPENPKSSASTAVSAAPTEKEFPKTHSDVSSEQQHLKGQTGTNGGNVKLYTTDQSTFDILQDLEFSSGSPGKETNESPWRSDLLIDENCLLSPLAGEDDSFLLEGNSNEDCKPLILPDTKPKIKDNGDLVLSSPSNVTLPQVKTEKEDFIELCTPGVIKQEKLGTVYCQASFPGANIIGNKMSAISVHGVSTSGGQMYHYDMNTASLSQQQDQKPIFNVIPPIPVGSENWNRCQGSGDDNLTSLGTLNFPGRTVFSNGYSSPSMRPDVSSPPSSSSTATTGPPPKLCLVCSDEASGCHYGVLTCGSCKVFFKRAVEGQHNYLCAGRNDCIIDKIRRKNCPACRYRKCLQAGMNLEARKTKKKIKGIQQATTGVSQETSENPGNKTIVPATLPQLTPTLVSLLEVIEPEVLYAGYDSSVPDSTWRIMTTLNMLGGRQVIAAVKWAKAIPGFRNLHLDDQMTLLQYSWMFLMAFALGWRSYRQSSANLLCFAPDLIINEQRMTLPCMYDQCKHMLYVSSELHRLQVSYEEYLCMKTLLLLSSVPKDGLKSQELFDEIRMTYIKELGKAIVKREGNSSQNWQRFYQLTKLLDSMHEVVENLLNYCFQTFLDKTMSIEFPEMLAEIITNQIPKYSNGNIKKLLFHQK
Assay: Human Glucocorticoid Receptor (GR) Assay (fluorescence polarization, Panvera/Invitrogen kit)
Conditions: GS Red tracer, 2 hours at room temperature, 100% control 10 μM Dexamethasone, read-out: Inhibition of GR binding, IC50
Experimental: Human Glucocorticoid Receptor (GR) Assay The assay is based on a commercial kit from Panvera/Invitrogen (Part number P2893). The assay technology is fluorescence polarization. The kit utilises recombinant human GR (Panvera, Part number P2812), a Fluoromone™ labelled tracer (GS Red, Panvera, Part number P2894) and a Stabilizing Peptide 10× (Panvera, Part number P2815). The GR and Stabilizing Peptide reagents are stored at −70° C. while the GS Red is stored at −20° C. Also included in the kit are 1M DTT (Panvera, Part number P2325, stored at −20° C.) and GR Screening buffer 10× (Panvera, Part number P2814, stored at −70° C. initially but once thawed stored at room temperature). Avoid repeated freeze/thaws for all reagents. The GR Screening buffer 10× comprises 100 mM potassium phosphate, 200 mM sodium molybdate, 1 mM EDTA and 20% DMSO. Test compounds (1 μL) and controls (1 μL) in 100% DMSO were added to black polystyrene 384-well plates (Greiner low volume black flat-bottom, part number 784076). 0% control was 100% DMSO and 100% control was 10 μM Dexamethasone. Background solution (8 μL; assay buffer 10×, Stabilizing Peptide, DTT and ice cold MQ water) was added to the background wells. GS Red solution (7 μL; assay buffer 10×, Stabilizing Peptide, DTT, GS Red and ice cold water) was added to all wells except background wells. GR solution (7 μL; assay buffer 10×, Stabilizing Peptide, DTT, GR and ice cold water) was added to all wells. The plate was sealed and incubated in a dark at room temperature for 2 hours. The plate was read in an Analyst plate reader (LJL Biosystems/Molecular Devices Corporation) or other similar plate reader capable of recording fluorescence polarization (excitation wavelength 530 nm, emission wavelength 590 nm and a dichroic mirror at 561 nm).

| Structure (SMILES) | IC50 |
| --- | --- |
| CCC[C@@H]1O[C@@H]2C[C@H]3[C@@H]4CCC5=Cc6c(cnn6-c6ccc(F)c(CNCCO)c6)C[C@]5(C)[C@H]4[C@@H](O)C[C@]3(C)[C@]2(C(=O)CO)O1 [Example 15, 1-[(4aR,4bS,5S,6aS,6bS, 8R,9aR,10aS,10bS)-1-(4-fluoro-3-{[(2-hydroxyethyl)amino]-methyl}phenyl)-5-hydroxy-4a,6a-dimethyl-8-propyl-4,4a, 4b,5,6,6a,9a,10,- 10a,10b,11,12-dodecahydro [1,3]dioxolo-[3′,4′]cyclopenta[1′,2′:5,6]naphtho[1,2-f]indazol-6b(1H)-yl]-2-hydroxyethanone trifluoroacetic acid] | 42 nM |
| CCC[C@@H]1O[C@@H]2C[C@H]3[C@@H]4CCC5=Cc6c(cnn6-c6ccc(F)c(CO)c6)C[C@]5(C)[C@H]4[C@@H](O)C[C@]3(C)[C@]2(C(=O)CO)O1 [Example 16, 1-[(4aR,4bS,5S,6aS,6bS,8R,9aR,10aS,10bS)-1-[4-Fluoro-3-(hydroxymethyl)phenyl]-5-hydroxy-4a,6a-dimethyl-8-propyl-4,4a,4b,5,6,6a,9a,10,10a,10b,11,12-dodecahydro[1,3]dioxolo[3′,4′]cyclopenta[1′,2′:5,6]naphtho[1,2-f]indazol-6b(1H)-yl]-2-hydroxyethanone] | 3.1 nM |
| CCC[C@H]1O[C@@H]2C[C@H]3[C@@H]4CCC5=Cc6c(cnn6-c6ccc(F)c(CO)c6)C[C@]5(C)[C@H]4[C@@H](O)C[C@]3(C)[C@]2(C(=O)CO)O1 [Example 17, 1-[(4aR,4bS,5S,6aS,6bS,8S,9aR,10aS,10bS)-1-[4-Fluoro-3-(hydroxymethyl)phenyl]-5-hydroxy-4a,6a-dimethyl-8-propyl-4,4a,4b,5,6,6a,9a,10,10a,10b,11,12-dodecahydro[1,3]dioxolo[3′,4′]cyclopenta[1′,2′:5,6]naphtho[1,2-f]indazol-6b(1H)-yl]-2-hydroxyethanone] | 6.6 nM |
| CCC[C@@H]1O[C@@H]2C[C@H]3[C@@H]4CCC5=Cc6c(cnn6-c6ccc(F)cc6)C[C@]5(C)[C@H]4[C@@H](O)C[C@]3(C)[C@]2(C(=O)CO)O1 [Example 18, 1-[(4aR,4bS,5S,6aS,6bS,8R,9aR,10aS,10bS)-1-(4-Fluorophenyl)-5-hydroxy-4a,6a-dimethyl-8-propyl-4,4a,4b,5,6,6a,9a,10,10a,10b,11,12-dodecahydro[1,3]dioxolo[3′,4′]-cyclopenta[1′,2′:5,6]naphtho[1,2-f]indazol-6b(1H)-yl]-2-hydroxyethanone] | 2.3 nM |
| CCC[C@H]1O[C@@H]2C[C@H]3[C@@H]4CCC5=Cc6c(cnn6-c6ccc(F)cc6)C[C@]5(C)[C@H]4[C@@H](O)C[C@]3(C)[C@]2(C(=O)CO)O1 [Example 19, 1-[(4aR,4bS,5S,6aS,6bS,8S,9aR,10aS,10bS)-1-(4-Fluorophenyl)-5-hydroxy-4a,6a-dimethyl-8-propyl-4,4a,4b,5,6,6a,9a,10,10a,10b,11,12-dodecahydro[1,3]dioxolo-[3′,4′]cyclopenta[1′,2′:5,6]naphtho[1,2-f]indazol-6b(1H)-yl]-2-hydroxyethanone] | 2.7 nM |
| CC1(C)O[C@@H]2C[C@H]3[C@@H]4CCC5=Cc6c(cnn6-c6ccc(F)cc6)C[C@]5(C)[C@H]4[C@@H](O)C[C@]3(C)[C@]2(C(=O)CO)O1 [Example 20, 1-[(4aR,4bS,5S,6aS,6bS,9aR,10aS,10bS)-1-(4-Fluorophenyl)-5-hydroxy-4a,6a,8,8-tetramethyl-4,4a,4b,5,6,6a,9a,10,10a,10b,11,12-dodecahydro[1,3]dioxolo-[3′,4′]cyclopenta[1′,2′:5,6]naphtho[1,2-f]indazol-6b(1H)-yl]-2-hydroxyethanone] | 1.3 nM |
| CCC[C@H]1O[C@@H]2C[C@H]3[C@@H]4CCC5=Cc6c(cnn6-c6ccc(F)c(C(=O)OC)c6)C[C@]5(C)[C@H]4[C@@H](O)C[C@]3(C)[C@]2(C(=O)CO)O1 [Example 23, Methyl 2-fluoro-5-[(4aR,4bS,5S,6aS,6bS,8S,9aR,10aS,10bS)-6b-glycoloyl-5-hydroxy-4a,6a-dimethyl-8-propyl-4a,4b,5,6,6a,6b,9a,10,10a,10b,11,12-dodecahydro[1,3]dioxolo[3′,4′]cyclopenta[1′,2′:5,6]naphtho[1,2-f]indazol-1(4H)-yl]benzoate] | 5.9 nM |

More lines, now with the values ahead:

| IC50 | Structure (SMILES) |
| --- | --- |
| 32 nM | CCC[C@@H]1O[C@@H]2C[C@H]3[C@@H]4CCC5=Cc6c(cnn6-c6ccc(F)c(CN7CCC(CO)CC7)c6)C[C@]5(C)[C@H]4[C@@H](O)C[C@]3(C)[C@]2(C(=O)CO)O1 [Example 13, 1-[(4aR,4bS,5S,6aS,6bS, 8R,9aR,10aS,10bS)-1-(4-fluoro-3-{[4-(hydroxymethyl)piperidin-1-yl]methyl}phenyl)-5-hydroxy-4a,6a-dimethyl-8-propyl-4,4a,4b,5,6,6a,9a,10, 10a,10b,11,12-dodecahydro[1,3]dioxolo [3′,4′]cyclopenta [1′,2′:5,6]naphtho[1,2-f]indazol-6b(1H)-yl]-2-hydroxyethanone trifluoroacetic acid] |
| 47 nM | CCC[C@H]1O[C@@H]2C[C@H]3[C@@H]4CCC5=Cc6c(cnn6-c6ccc(F)c(CN7CCC(CO)CC7)c6)C[C@]5(C)[C@H]4[C@@H](O)C[C@]3(C)[C@]2(C(=O)CO)O1 [Example 14, 1-[(4aR,4bS,5S,6aS,6bS, 8S,9aR,10aS,10bS)-1-(4-fluoro-3-{[4-(hydroxymethyl)-piperidin-1-yl]methyl}phenyl)-5-hydroxy-4a,6a-dimethyl-8-propyl-4,4a,4b,5,6,6a,9a,10, 10a,10b,11,12-dodecahydro[1,3]dioxolo [3′,4′]cyclopenta [1′,2′:5,6]naphtho[1,2-f]indazol-6b(1H)-yl]-2-hydroxyethanone trifluoroacetic acid] |
| 5.5 nM | CC1(C)O[C@@H]2C[C@H]3[C@@H]4CCC5=Cc6c(cnn6-c6ccc(F)c(CO)c6)C[C@]5(C)[C@H]4[C@@H](O)C[C@]3(C)[C@]2(C(=O)CO)O1 [Example 21, 1-[(4aR,4bS,5S,6aS,6bS,9aR,10aS,10bS)-1-[4-Fluoro-3-(hydroxymethyl)phenyl]-5-hydroxy-4a,6a,8,8-tetramethyl-4,4a,4b,5,6,6a,9a,10,10a,10b,11,12-dodecahydro[1,3]dioxolo[3′,4′]cyclopenta[1′,2′:5,6]naphtho[1,2-f]indazol-6b(1H)-yl]-2-hydroxyethanone] |
| 5.9 nM | CCC[C@@H]1O[C@@H]2C[C@H]3[C@@H]4CCC5=Cc6c(cnn6-c6ccc(F)c(C(=O)OC)c6)C[C@]5(C)[C@H]4[C@@H](O)C[C@]3(C)[C@]2(C(=O)CO)O1 [Example 22, Methyl 2-fluoro-5-[(4aR,4bS,5S,6aS,6bS,8R,9aR,10aS,10bS)-6b-glycoloyl-5-hydroxy-4a,6a-dimethyl-8-propyl-4a,4b,5,6,6a,6b,9a,10,10a,10b,11,12-dodecahydro[1,3]dioxolo[3′,4′]cyclopenta[1′,2′:5,6]naphtho[1,2-f]indazol-1(4H)-yl]benzoate] |
| 3.8 nM | CC1(C)O[C@@H]2C[C@H]3[C@@H]4C=CC5=Cc6c(cnn6-c6ccc(F)cc6)C[C@]5(C)[C@H]4[C@@H](O)C[C@]3(C)[C@]2(C(=O)CO)O1 [Example 24, 1-[(4aR,4bS,5S,6aS,6bS,9aR,10aS,10bS)-1-(4-Fluorophenyl)-5-hydroxy-4a,6a,8,8-tetramethyl-4,4a,4b,5,6,6a,9a,10,10a,10b-decahydro[1,3]dioxolo[3′,4′]cyclopenta-[1′,2′:5,6]naphtho[1,2-f]indazol-6b(1H)-yl]-2-hydroxyethanone] |
